Reference: ChEMBL document CHEMBL1909046, “DrugMatrix in vitro pharmacology data”

Key:
[1] = target: T1, Estrogen receptor (Homo sapiens, UniProt P03372); assay: biochemical
T1 sequence (P03372 whole entry): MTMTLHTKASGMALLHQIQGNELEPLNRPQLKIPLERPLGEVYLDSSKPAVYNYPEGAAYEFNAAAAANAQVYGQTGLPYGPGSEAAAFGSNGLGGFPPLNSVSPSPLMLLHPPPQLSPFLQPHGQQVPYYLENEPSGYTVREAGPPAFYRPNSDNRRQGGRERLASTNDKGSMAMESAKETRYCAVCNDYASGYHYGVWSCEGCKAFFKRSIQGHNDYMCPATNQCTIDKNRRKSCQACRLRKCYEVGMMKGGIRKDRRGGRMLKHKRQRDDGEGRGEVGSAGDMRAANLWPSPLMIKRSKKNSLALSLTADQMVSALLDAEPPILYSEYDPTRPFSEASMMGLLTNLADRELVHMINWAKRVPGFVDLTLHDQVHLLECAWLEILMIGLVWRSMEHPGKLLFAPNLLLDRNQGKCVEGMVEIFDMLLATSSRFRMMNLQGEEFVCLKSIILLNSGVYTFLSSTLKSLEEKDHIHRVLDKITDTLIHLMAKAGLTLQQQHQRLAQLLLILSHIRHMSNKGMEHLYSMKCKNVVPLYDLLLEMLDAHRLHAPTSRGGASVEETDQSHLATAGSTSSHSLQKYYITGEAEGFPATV

[2] = target: T2, Glucocorticoid receptor (Homo sapiens, UniProt P04150); assay: biochemical
T2 sequence (P04150 whole entry): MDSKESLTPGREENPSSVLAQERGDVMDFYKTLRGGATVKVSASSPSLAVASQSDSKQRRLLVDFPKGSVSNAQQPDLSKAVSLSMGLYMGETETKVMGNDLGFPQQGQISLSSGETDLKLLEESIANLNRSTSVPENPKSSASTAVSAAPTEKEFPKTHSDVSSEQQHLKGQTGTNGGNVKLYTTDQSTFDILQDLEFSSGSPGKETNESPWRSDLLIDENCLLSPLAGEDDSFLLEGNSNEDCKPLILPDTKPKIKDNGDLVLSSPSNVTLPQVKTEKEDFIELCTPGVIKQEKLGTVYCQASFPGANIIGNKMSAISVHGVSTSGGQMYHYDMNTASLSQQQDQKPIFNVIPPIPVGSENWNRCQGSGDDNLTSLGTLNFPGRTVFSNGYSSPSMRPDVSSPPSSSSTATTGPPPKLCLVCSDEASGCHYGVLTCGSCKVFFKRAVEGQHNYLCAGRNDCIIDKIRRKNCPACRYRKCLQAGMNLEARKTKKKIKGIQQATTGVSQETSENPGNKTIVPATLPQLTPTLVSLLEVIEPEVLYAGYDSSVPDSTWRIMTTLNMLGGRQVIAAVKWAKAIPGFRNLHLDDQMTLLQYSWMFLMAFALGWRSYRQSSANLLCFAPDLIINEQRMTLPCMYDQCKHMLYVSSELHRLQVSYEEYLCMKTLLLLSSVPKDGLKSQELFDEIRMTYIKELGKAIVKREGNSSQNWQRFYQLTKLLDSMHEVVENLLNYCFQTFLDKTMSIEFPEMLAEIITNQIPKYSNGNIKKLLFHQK

[3] = target: Cytochrome P450 3A4 (Homo sapiens, UniProt P08684)
Sequence of Cytochrome P450 3A4 (P08684 whole entry): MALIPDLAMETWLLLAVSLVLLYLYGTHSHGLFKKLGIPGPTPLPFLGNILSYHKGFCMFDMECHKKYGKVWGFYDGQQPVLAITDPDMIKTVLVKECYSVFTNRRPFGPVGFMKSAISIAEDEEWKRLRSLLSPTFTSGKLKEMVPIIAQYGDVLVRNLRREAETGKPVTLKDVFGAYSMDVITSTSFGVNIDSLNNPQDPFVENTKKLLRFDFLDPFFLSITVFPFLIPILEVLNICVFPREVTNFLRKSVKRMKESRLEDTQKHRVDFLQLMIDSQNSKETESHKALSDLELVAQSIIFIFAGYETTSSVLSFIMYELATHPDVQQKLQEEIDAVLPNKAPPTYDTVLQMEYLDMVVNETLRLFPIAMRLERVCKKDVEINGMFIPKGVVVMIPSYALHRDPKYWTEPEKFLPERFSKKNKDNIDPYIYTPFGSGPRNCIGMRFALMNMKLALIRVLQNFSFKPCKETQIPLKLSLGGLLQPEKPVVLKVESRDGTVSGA

Q: What does the source list for `C#C[C@]1(O)CC[C@H]2[C@@H]3[C@H](C)CC4=C(CCC(=O)C4)[C@H]3CC[C@@]21C` [TIBOLONE]?
A: IC50 [1]: 433 nM; Ki [1]: 124 nM

Q: With `CC(=O)O[C@]1(C(C)=O)CC[C@H]2[C@@H]3C[C@H](C)C4=CC(=O)CC[C@]4(C)[C@H]3CC[C@@]21C` [MEDROXYPROGESTERONE ACETATE] as the compound, how does the IC50 [2] read?
A: The IC50 was 19 nM.

Q: What about the Ki [2] of the same compound?
A: Its Ki is 8.64 nM.

Q: For `CC[C@H](C)[C@@H](CO[C@@H](Cc1ccccc1)C(=O)N[C@@H](CCS(C)(=O)=O)C(=O)OC(C)C)NC[C@@H](N)CS`, which IC50 [3] is on record?
A: The IC50 was 3000 nM.
